Consider eight compounds from US20220324835A1 (Nurix Therapeutics, Inc., priority 2018, published 2022).

What all share (type): cell-based
In experiment [1] the test system is human T-cells with allogenic immature dendritic cells. In words: Allogenic mixed lymphocyte reaction (MLR), T-cell proliferation. Particulars: 120 h, 5 days, baseline T-cells without Cbl-b inhibitor, read-out: Proliferation, fold change over baseline. As to the method:
Cbl-b inhibitor effects on primary human T-cells were also evaluated in the context of an allogenic mixed lymphocyte reaction (MLR). Allogenic immature dendritic cells were generated under the following conditions. Peripheral blood mononuclear cells (PBMC) were obtained either: 1) by using Ficoll-Paque™ (GE Healthcare) for separation of peripheral blood hematopoietic cells from huffy coats of healthy human donors; or 2) directly from LeukoPak donations. […] Monocytes were cultured with 30 ng/mL of recombinant human GM-CSF and 20 ng/mL of recombinant human IL-4 for seven days to generate immature dendritic cells. Monocytes and T-cells were either isolated fresh from peripheral blood or thawed from frozen stocks. Human T-cells were isolated, labeled with CFSE and incubated with inhibitors as described above. […] Proliferation of the T-cells was evaluated by flow cytometry.
Readouts for the allogenic mixed lymphocyte reaction were reported as fold change over baseline. Baseline for this study was the measurement obtained from total human T-cells stimulated with allogenic immature dendritic cells, wherein the T-cells were not incubated with a Cbl-b inhibitor (Table 5). Increases in proliferation greater than 2-fold over baseline were considered a positive response (Table 5).

For another experiment, the system named is primary human B cells. In words: B cell activation assay (CD69 on anti-IgM stimulated B cells). The settings on record: AUC of dose response curve (10 μM to 1 nM) of CD69 MFI normalized to DMSO control. Summed up:
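Negatively selected PBMC-derived B cells (>95% CD20+) treated with Cbl-b inhibitors from 10 μM to 1 nM (DMSO <0.5%) and stimulated with anti-IgM for 20 h at 37° C. CD69 MFI on CD20+ IgD+ cells by flow cytometry; dose-response AUC normalized to DMSO plus 2.5 μg/mL anti-IgM-F(ab′)2, binned A-D.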

A further experiment concerns primary human NK cells. In words: NK cell activation assessed by cytokine secretion (coculture with K562 NucRed target cells). The settings on record: for fold induction at 0.625 µM: 0.625 μM compound; for fold induction at 2.5 µM: 2.5 μM compound. Summed up:
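Primary NK cells from donor PBMC, IL-2 (60 ng/mL) overnight, then Cbl-b inhibitor (e.g. 10, 1 or 0.1 μM; DMSO <0.1%) for 1 h before 6 h coculture with K562 NucRed at effector:target ratios such as 5:1, 1:1 or 1:5. Supernatant IFNγ, TNFα, MIP1β measured by ELISA or Luminex; fold change over inhibitor-free baseline, >2.0-fold positive.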

[2] abbreviates: K562, NK cells cocultured with K562 NucRed, 1:1 E/T, read-out: IFNγ secretion, fold change over baseline.
Setting [3] is: K562, NK cells cocultured with K562 NucRed, 1:1 E/T, read-out: TNFα secretion, fold change over baseline.
[4] abbreviates: K562, NK cells cocultured with K562 NucRed, 1:1 E/T, 10 μM compound, read-out: IFNγ secretion, fold change over baseline.
Where [5] appears, read: K562, NK cells cocultured with K562 NucRed, 1:1 E/T, 10 μM compound, read-out: TNFα secretion, fold change over baseline.
Where [6] appears, read: K562, 1:1 E/T, read-out: IFNγ secretion.
The mark [7] stands for this setting: K562, 1:1 E/T, read-out: MIP1β secretion.
Setting [8] is: K562, 1:1 E/T, read-out: TNFα secretion.
Setting [9] is: K562, 1:1 E/T, 10 μM, read-out: IFNγ secretion.
[10] abbreviates: K562, 1:1 E/T, 10 μM, read-out: MIP1β secretion.
The mark [11] stands for this setting: K562, 1:1 E/T, 10 μM, read-out: TNFα secretion.
Where [12] appears, read: K562, 5:1 E/T, read-out: IFNγ secretion.
[13] abbreviates: K562, 5:1 E/T, read-out: MIP1β secretion.
Setting [14] is: K562, 5:1 E/T, read-out: TNFα secretion.
The mark [15] stands for this setting: K562, 5:1 E/T, 10 μM, read-out: IFNγ secretion.
Where [16] appears, read: K562, 5:1 E/T, 10 μM, read-out: MIP1β secretion.
Setting [17] is: K562, 5:1 E/T, 10 μM, read-out: TNFα secretion.

Read-outs that look alike come from different tables or passages of the source.

As for `C[C@H](Cc1nncn1C)c1cccc(N2Cc3c(cc(CN4CC(C)(O)C4)cc3C(F)(F)F)C2=O)c1` [Compound 397], the fold induction at 3 µM in experiment [1] is less than 2. Besides, the fold induction at 10 µM in experiment [1] was 2.01 to 3; with primary human NK cells (setting [4]), greater than 5; in the experiment with primary human NK cells (setting [5]) it was 2.01 to 5. In addition, the “CD69 MFI AUC” value with primary human B cells was “B (B indicates 0.5-1.00)”. Besides, the fold induction at 0.625 µM in the experiment on primary human NK cells (setting [2]) lay in the range of 2.01 to 5; in the experiment on primary human NK cells (setting [3]) it was 1.01 to 2. Moreover, the fold induction at 2.5 µM in the experiment with primary human NK cells (setting [2]) and in the experiment with primary human NK cells (setting [3]) was 2.01 to 5 in each case.
Consider `C[C@H](Cc1nncn1C)c1cccc(N2Cc3c(cc(CN4CC[C@](C)(O)C4)cc3C(F)(F)F)C2=O)c1` [Compound 398, 6-(((S)-3-hydroxy-3-methylpyrrolidin-1-yl)methyl)-2-(3-((R)-1-(4-methyl-4H-1,2,4-triazol-3-yl)propan-2-yl)phenyl)-4-(trifluoromethyl)isoindolin-1-one], for which the fold induction at 3 µM in experiment [1] was in the range of 2.01 to 3. Besides, the values for the fold induction at 10 µM (in experiment [1]; with primary human NK cells (setting [4]); with primary human NK cells (setting [5])) were 2.01 to 3, greater than 5 and 2.01 to 5, respectively. Besides, in the experiment with primary human B cells, the “CD69 MFI AUC” value was “B (B indicates 0.5-1.00)”. Also, the fold induction at 0.625 µM is 2.01 to 5 in the experiment with primary human NK cells (setting [2]) and 1.01 to 2 in the experiment on primary human NK cells (setting [3]). For the same compound, the fold induction at 2.5 µM with primary human NK cells (setting [2]) and in the experiment on primary human NK cells (setting [3]) was 2.01 to 5 throughout.
Regarding `C[C@H](Cc1nncn1C)c1cccc(N2Cc3c(cc(CN4CC[C@H](F)C4)cc3C(F)(F)F)C2=O)c1` [Compound 399, 6-(((S)-3-fluoropyrrolidin-1-yl)methyl)-2-(3-((R)-1-(4-methyl-4H-1,2,4-triazol-3-yl)propan-2-yl)phenyl)-4-(trifluoromethyl)isoindolin-1-one], in experiment [1], the fold induction at 3 µM was 2.01 to 3. The fold induction at 10 µM in experiment [1] is greater than 3.01; in the experiment on primary human NK cells (setting [9]), greater than 5; in the experiment on primary human NK cells (setting [10]), 1.01 to 2; in the experiment on primary human NK cells (setting [11]), 2.01 to 5; in the experiment with primary human NK cells (setting [15]), greater than 5; with primary human NK cells (setting [16]), 1.01 to 2. Moreover, the fold induction at 10 µM in the experiment with primary human NK cells (setting [17]), with primary human NK cells (setting [4]) and in the experiment on primary human NK cells (setting [5]) was greater than 5 in each case. Also, the “CD69 MFI AUC” value in the experiment with primary human B cells is “C (C indicates 1.01-1.50)”. Besides, the fold induction at 1 µM with primary human NK cells (setting [6]) fell in the range of 2.01 to 5; in the experiment with primary human NK cells (setting [7]), 1.01 to 2; with primary human NK cells (setting [8]) it was 2.01 to 5; in the experiment with primary human NK cells (setting [12]) it was 2.01 to 5; in the experiment with primary human NK cells (setting [13]) it was 1.01 to 2; in the experiment on primary human NK cells (setting [14]) it was 2.01 to 5. Moreover, the fold induction at 0.625 µM in the experiment with primary human NK cells (setting [2]) and in the experiment on primary human NK cells (setting [3]) was 2.01 to 5 in each case. Also, the fold induction at 2.5 µM with primary human NK cells (setting [2]) and in the experiment on primary human NK cells (setting [3]) was greater than 5 in each case.
On to `C[C@@H](c1cc2c(c(C(F)(F)F)c1)CN(c1cccc(C3(Cc4nncn4C)COC3)c1)C2=O)N1CC[C@H](F)C1` [Compound 412, 6-((S)-1-((S)-3-fluoropyrrolidin-1-yl)ethyl)-2-(3-(3-((4-methyl-4H-1,2,4-triazol-3-yl)methyl)oxetan-3-yl)phenyl)-4-(trifluoromethyl)isoindolin-1-one], for which the fold induction at 3 µM in experiment [1] is greater than 3.01. Further, the results for the fold induction at 10 µM (in experiment [1]; in the experiment with primary human NK cells (setting [4]); in the experiment on primary human NK cells (setting [5])) were greater than 3.01, greater than 5 and 2.01 to 5, respectively. In addition, the “CD69 MFI AUC” value with primary human B cells is reported as “D (D indicates ≥1.51)”. The fold induction at 0.625 µM with primary human NK cells (setting [2]) and in the experiment with primary human NK cells (setting [3]) was 2.01 to 5 in each case. The fold induction at 2.5 µM with primary human NK cells (setting [2]) and with primary human NK cells (setting [3]) was 2.01 to 5 in each case.
On to `C[C@H](c1cc2c(c(C(F)(F)F)c1)CN(c1cccc(C3(Cc4nncn4C)COC3)c1)C2=O)N1CC[C@H](F)C1` [Compound 413, 6-((R)-1-((S)-3-fluoropyrrolidin-1-yl)ethyl)-2-(3-(3-((4-methyl-4H-1,2,4-triazol-3-yl)methyl)oxetan-3-yl)phenyl)-4-(trifluoromethyl)isoindolin-1-one], for which the fold induction at 3 µM in experiment [1] is 2.01 to 3. Besides, the fold induction at 10 µM in experiment [1] is greater than 3.01; in the experiment with primary human NK cells (setting [4]), greater than 5; with primary human NK cells (setting [5]), 2.01 to 5. The “CD69 MFI AUC” value in the experiment on primary human B cells is on record as “C (C indicates 1.01-1.50)”. The fold induction at 0.625 µM with primary human NK cells (setting [2]) and with primary human NK cells (setting [3]) was 2.01 to 5 each time. Further, the fold induction at 2.5 µM in the experiment with primary human NK cells (setting [2]) was greater than 5; in the experiment on primary human NK cells (setting [3]) it was 2.01 to 5.
Consider `Cn1cnnc1CC1(c2cccc(N3Cc4c(cc(CN5CC(F)C5)cc4C(F)(F)F)C3=O)c2)COC1` [Compound 415, 6-((3-fluoroazetidin-1-yl)methyl)-2-(3-(3-((4-methyl-4H-1,2,4-triazol-3-yl)methyl)oxetan-3-yl)phenyl)-4-(trifluoromethyl)isoindolin-1-one], for which the fold induction at 3 µM in experiment [1] was in the range of 2.01 to 3. Also, the fold induction at 10 µM in experiment [1] is greater than 3.01; in the experiment with primary human NK cells (setting [4]), greater than 5; in the experiment with primary human NK cells (setting [5]), 2.01 to 5. For the same compound, the “CD69 MFI AUC” value with primary human B cells is given as “C (C indicates 1.01-1.50)”. Besides, the fold induction at 0.625 µM fell in the range of 2.01 to 5 in the experiment on primary human NK cells (setting [2]) and 1.01 to 2 in the experiment with primary human NK cells (setting [3]). Further, the fold induction at 2.5 µM in the experiment on primary human NK cells (setting [2]) and in the experiment on primary human NK cells (setting [3]) was 2.01 to 5 each time.
Regarding `Cn1cnnc1CC1(c2cccc(N3Cc4c(cc(CN5CC[C@H](C#N)C5)cc4C(F)(F)F)C3=O)c2)COC1` [Compound 422, (S)-1-((2-(3-(3-((4-methyl-4H-1,2,4-triazol-3-yl)methyl)oxetan-3-yl)phenyl)-3-oxo-7-(trifluoromethyl)isoindolin-5-yl)methyl)pyrrolidine-3-carbonitrile], the fold induction at 3 µM in experiment [1] is less than 2. Besides, the fold induction at 10 µM was in the range of 2.01 to 3 in experiment [1], 2.01 to 5 in the experiment on primary human NK cells (setting [4]) and 2.01 to 5 in the experiment with primary human NK cells (setting [5]). In addition, in the experiment with primary human B cells, the “CD69 MFI AUC” value is on record as “C (C indicates 1.01-1.50)”. For the same compound, the fold induction at 0.625 µM with primary human NK cells (setting [2]) and in the experiment with primary human NK cells (setting [3]) was 1.01 to 2 each time. The fold induction at 2.5 µM in the experiment on primary human NK cells (setting [2]) was 2.01 to 5; in the experiment with primary human NK cells (setting [3]), 1.01 to 2.
Regarding `Cn1cnnc1C(F)(F)[C@](C)(F)c1cccc(N2Cc3c(cc(C(=O)N4CC[C@H](O)C4)cc3C(F)(F)F)C2=O)c1` [Compound 438, 6-((S)-3-hydroxypyrrolidine-1-carbonyl)-2-(3-((R)-1,1,2-trifluoro-1-(4-methyl-4H-1,2,4-triazol-3-yl)propan-2-yl)phenyl)-4-(trifluoromethyl)isoindolin-1-one], the fold induction at 3 µM in experiment [1] is less than 2. In addition, the fold induction at 10 µM in experiment [1] is less than 2; with primary human NK cells (setting [9]), less than 1; with primary human NK cells (setting [10]), less than 1; in the experiment on primary human NK cells (setting [11]) it was 1.01 to 2; in the experiment on primary human NK cells (setting [15]), 1.01 to 2; in the experiment with primary human NK cells (setting [16]), 1.01 to 2. Besides, the figures for the fold induction at 10 µM in the experiment with primary human NK cells (setting [17]), with primary human NK cells (setting [4]) and in the experiment on primary human NK cells (setting [5]) were 1.01 to 2, 2.01 to 5 and 1.01 to 2, respectively. The “CD69 MFI AUC” value in the experiment on primary human B cells is reported as “A (A indicates ≤0.5)”. The fold induction at 1 µM in the experiment on primary human NK cells (setting [6]) is less than 1; with primary human NK cells (setting [7]), less than 1; with primary human NK cells (setting [8]), 1.01 to 2; in the experiment on primary human NK cells (setting [12]) it was less than 1; in the experiment on primary human NK cells (setting [13]) it was less than 1; in the experiment with primary human NK cells (setting [14]), 1.01 to 2. Besides, the fold induction at 0.625 µM with primary human NK cells (setting [2]) and in the experiment on primary human NK cells (setting [3]) was 1.01 to 2 in each case. Moreover, the fold induction at 2.5 µM in the experiment with primary human NK cells (setting [2]) and in the experiment on primary human NK cells (setting [3]) was 1.01 to 2 in each case.
